The subject of this test is TNBS-induced colitis in Wistar rats. Kind of test: In vivo TNBS test model (colitis in rats). The method, then: Female Wistar rats (200-210 g) were kept in Makrolon cages in air-conditioned animal quarters with 12 hours light-dark cycle, fed standard rodent food and water ad libitum throughout the experiment. The rats are randomly assigned to six groups (n=10). Two groups (healthy and sick controls) obtain 1 ml of the administration medium orally, and the test groups obtain either 100 mg/kg BW of a wild thyme extract formulation according to Example 4, or 70 mg/kg BW of a wild thyme extract formulation according to Example 3, or 30 mg/kg BW of the prebiotic Nutriose, or 100 mg/kg BW sulfasalazine (SAZ) in the reference group. All test substances are administered once a day as a solution or suspension through a gastric tube for a period of 7 days. The administration of the test substances starts at the same day as the colitis induction. For this purpose, the rats are fasted over night, and then a colitis is induced in both the sick control group and the treatment groups with TNBS as follows: During a halothane anesthesia, a solution (10 mg of TNBS dissolved in 0.25 ml of ethanol 50% v/v) is injected from a Teflon cannula through the anus 8 cm deep into the intestine. The rats of the healthy control group are administered 0.25 ml of a PBS solution instead of the TNBS solution. The body weight, the water and food intake and the stool consistency are recorded daily during the testing period. One week after the start of the colitis induction, all the rats are sacrificed by an overdose of halothane, and the intestine is removed for evaluating the intestinal damage. The intestinal segment is cleaned from fat and mesenterium, and transferred to a filter paper. Each specimen is weighed, and its length is measured under a constant load (2 g), and the weight-to-length ratio is determined therefrom. Independently of the treatment employed, the intestine is evaluated macroscopically for visible damage on a scale of from 0 to 10 by two observers by means of previously defined criteria, which take the extension and severity of the damage into account. […]

`O=C(O)c1cc(/N=N/c2ccc(S(=O)(=O)Nc3ccccn3)cc2)ccc1O` [Sulfasalazine, sulfasalazine] displayed an IL-6 (100 mg/kg oral once a day, 7 days, colitic control 281.8 ± 26.8) of 222.0 ± 16.1 ng/g. For the setting “100 mg/kg oral once a day, 7 days, colitic control 8969.6 ± 1402.0”, this compound registered an MPO of 5591.5 ± 537.0 mU/g. Besides, where the note is “doses as in Table 3, vs. colitic control”, the “significant influence on the parameters of Table 3, in words” value is “could not show significant improvements in all parameters”.

The record behind these values is patent US11179430B2, “Extracts from mother-of-thyme and the use i'hereof” (Finzelberg GmbH & Co. KG, priority 2012, dated 2021).
